From patent US11771738B2 (Zoetis Services LLC, priority 2018, dated 2023)
Where two headings read alike, the source gives them in different places.

What was measured:
Format in all cases: cell-based
[1] = system: microfilariae of Dirofilaria immitis; assay: Dirofilaria immitis, Microfilaria (DiMf) In Vitro Assay; settings: Dirofilaria immitis, 72 h, read-out: DiMf MED, Minimum Effective Dose, D. immitis microfilariae motility, in vitro
[2] = system: third stage larvae of Haemonchus contortus; assay: Haemonchus contortus, Larvae Stage 3 (HcL3) In Vitro Assay; settings: Haemonchus contortus, 96 h
[3] = system: D. immitis L4 larvae; assay: Dirofilaria immitis, L4 Stage (DiL4) In Vitro Assay; settings: for minimal effective concentration: Dirofilaria immitis, 72 h, read-out: DiL4 MED, Minimum Effective Dose, D. immitis L4 larvae motility, in vitro; for DiMf/DiL4: larval stage selectivity, ratio of DiMf MED to DiL4 MED
[4] = read-out: HcL3 MED, Minimum Effective Dose, H. contortus third stage larvae, approximately 96 hours
[5] = read-out: HcL3 MED, Haemonchus contortus third stage larvae in vitro, class mark appended to the Ex # in Table 3
[6] = read-out: HcL3 MED, approximately 96 hours incubation, multiple-resistant field isolate

With CC(C)C[C@H]1C(=O)O[C@H](Cc2ccc(Cc3cc(C4CC4)no3)cc2)C(=O)N(C)[C@@H](CC(C)C)C(=O)O[C@H](C)C(=O)N(C)[C@@H](CC(C)C)C(=O)O[C@H](Cc2ccc(Cc3cc(C4CC4)no3)cc2)C(=O)N(C)[C@@H](CC(C)C)C(=O)O[C@H](C)C(=O)N1C [Example 3-284, (3S,6R,9S,12R,15S,18R,21S,24R)-6,18-bis(4-((3-cyclopropylisoxazol-5-yl)methyl)benzyl)-3,9,15,21-tetraisobutyl-4,10,12,16,22,24-hexamethyl-1,7,13,19-tetraoxa-4,10,16,22-tetraazacyclotetracosan-2,5,8,11,14,17,20,23-octaone] the minimal effective concentration [1] was 0.1 µM, the minimal effective concentration [2, 4] was > 10 µM and the minimal effective concentration [3] was 0.0005 µM. For the same compound, the DiMf/DiL4 [3] was 200.
CC(C)C[C@H]1C(=O)O[C@H](Cc2ccc([C@H](F)c3nccs3)cc2)C(=O)N(C)[C@@H](CC(C)C)C(=O)O[C@H](C)C(=O)N(C)[C@@H](CC(C)C)C(=O)O[C@H](Cc2ccc([C@@H](F)c3nccs3)cc2)C(=O)N(C)[C@@H](CC(C)C)C(=O)O[C@H](C)C(=O)N1C [Example 3-285, (3S,6R,9S,12R,15S,18R,21S,24R)-6-(4-((R)-fluoro(thiazol-2-yl)methyl)benzyl)-18-(4-((S)-fluoro(thiazol-2-yl)methyl)benzyl)-3,9,15,21-tetraisobutyl-4,10,12,16,22,24-hexamethyl-1,7,13,19-tetraoxa-4,10,16,22-tetraazacyclotetracosan-2,5,8,11,14,17,20,23-octaone] showed a minimal effective concentration [1] of 0.003 µM, a minimal effective concentration [2, 4] of 5.7 µM and a minimal effective concentration [3] of 0.0005 µM. The DiMf/DiL4 [3] was 6.
For CC(C)C[C@H]1C(=O)O[C@H](Cc2ccc(Cc3cnn(CCF)c3)cc2)C(=O)N(C)[C@@H](CC(C)C)C(=O)O[C@H](C)C(=O)N(C)[C@@H](CC(C)C)C(=O)O[C@H](Cc2ccc(Cc3cnn(CCF)c3)cc2)C(=O)N(C)[C@@H](CC(C)C)C(=O)O[C@H](C)C(=O)N1C [Example 3-286, (3S,6R,9S,12R,15S,18R,21S,24R)-6,18-bis(4-((1-(2-fluoroethyl)-1H-pyrazol-4-yl)methyl)benzyl)-3,9,15,21-tetraisobutyl-4,10,12,16,22,24-hexamethyl-1,7,13,19-tetraoxa-4,10,16,22-tetraazacyclotetracosan-2,5,8,11,14,17,20,23-octaone], the minimal effective concentration [1] was 0.03 µM, the minimal effective concentration [2, 4] was > 10 µM and the minimal effective concentration [3] was 0.0005 µM. The DiMf/DiL4 [3] was 60.
With CC(C)C[C@H]1C(=O)O[C@H](Cc2ccc(Cc3ccc(C(F)F)nc3)cc2)C(=O)N(C)[C@@H](CC(C)C)C(=O)O[C@H](C)C(=O)N(C)[C@@H](CC(C)C)C(=O)O[C@H](Cc2ccc(Cc3ccc(C(F)F)nc3)cc2)C(=O)N(C)[C@@H](CC(C)C)C(=O)O[C@H](C)C(=O)N1C [Example 3-287, (3S,6R,9S,12R,15S,18R,21S,24R)-6,18-bis(4-((6-(difluoromethyl)pyridin-3-yl)methyl)benzyl)-3,9,15,21-tetraisobutyl-4,10,12,16,22,24-hexamethyl-1,7,13,19-tetraoxa-4,10,16,22-tetraazacyclotetracosan-2,5,8,11,14,17,20,23-octaone] the minimal effective concentration [1] was 0.05 µM, the minimal effective concentration [2, 4] was > 10 µM and the minimal effective concentration [3] was 0.0005 µM. For the same compound, the DiMf/DiL4 [3] was 100.
CC(C)C[C@H]1C(=O)O[C@H](Cc2ccc(Cc3cncnc3C3CC3)cc2)C(=O)N(C)[C@@H](CC(C)C)C(=O)O[C@H](C)C(=O)N(C)[C@@H](CC(C)C)C(=O)O[C@H](Cc2ccc(Cc3cncnc3C3CC3)cc2)C(=O)N(C)[C@@H](CC(C)C)C(=O)O[C@H](C)C(=O)N1C [Example 3-289, (3S,6R,9S,12R,15S,18R,21S,24R)-6,18-bis(4-((4-cyclopropylpyrimidin-5-yl)methyl)benzyl)-3,9,15,21-tetraisobutyl-4,10,12,16,22,24-hexamethyl-1,7,13,19-tetraoxa-4,10,16,22-tetraazacyclotetracosan-2,5,8,11,14,17,20,23-octaone] was tested, and the minimal effective concentration [1] was 0.003 µM, the minimal effective concentration [2, 5] was 1 to 3.3 µM and the minimal effective concentration [2, 4] was 3.3 µM. It also gave a minimal effective concentration [3] of 0.0005 µM and a DiMf/DiL4 [3] of 6.
For CC(C)C[C@H]1C(=O)O[C@H](Cc2ccc(Cc3cccnc3C(F)F)cc2)C(=O)N(C)[C@@H](CC(C)C)C(=O)O[C@H](C)C(=O)N(C)[C@@H](CC(C)C)C(=O)O[C@H](Cc2ccc(Cc3cccnc3C(F)F)cc2)C(=O)N(C)[C@@H](CC(C)C)C(=O)O[C@H](C)C(=O)N1C [Example 3-290, (3S,6R,9S,12R,15S,18R,21S,24R)-6,18-bis[[4-[[2-(difluoromethyl)-3-pyridyl]methyl]phenyl]methyl]-3,9,15,21-tetraisobutyl-4,10,12,16,22,24-hexamethyl-1,7,13,19-tetraoxa-4,10,16,22-tetrazacyclotetracosane-2,5,8,11,14,17,20,23-octaone], the minimal effective concentration [1] was 0.0003 µM, the minimal effective concentration [2, 5] was < 1 µM and the minimal effective concentration [2, 4] was 0.2 µM. For the same compound, the minimal effective concentration [2, 6] was ≤ 1 µM, the minimal effective concentration [3] was 0.0001 µM and the DiMf/DiL4 [3] was 3.
With CC(C)C[C@H]1C(=O)O[C@H](Cc2ccc([C@@H](C)c3nccs3)cc2)C(=O)N(C)[C@@H](CC(C)C)C(=O)O[C@H](C)C(=O)N(C)[C@@H](CC(C)C)C(=O)O[C@H](Cc2ccc([C@@H](C)c3nccs3)cc2)C(=O)N(C)[C@@H](CC(C)C)C(=O)O[C@H](C)C(=O)N1C [Example 3-291, (3S,6R,9S,12R,15S,18R,21S,24R)-3,9,15,21-tetraisobutyl-4,6,10,16,18,22-hexamethyl-12,24-bis(4-((R)-1-(thiazol-2-yl)ethyl)benzyl)-1,7,13,19-tetraoxa-4,10,16,22-tetraazacyclotetracosan-2,5,8,11,14,17,20,23-octaone] the minimal effective concentration [1] was 0.0003 µM, the minimal effective concentration [2, 5] was < 1 µM and the minimal effective concentration [2, 4] was 0.3 µM. The minimal effective concentration [2, 6] was ≤ 1 µM, the minimal effective concentration [3] was 0.0001 µM and the DiMf/DiL4 [3] was 3.
CC(C)C[C@H]1C(=O)O[C@H](Cc2ccc(Cc3ccnc(N4CCOCC4)c3)cc2)C(=O)N(C)[C@@H](CC(C)C)C(=O)O[C@H](C)C(=O)N(C)[C@@H](CC(C)C)C(=O)O[C@H](Cc2ccc(Cc3ccnc(N4CCOCC4)c3)cc2)C(=O)N(C)[C@@H](CC(C)C)C(=O)O[C@H](C)C(=O)N1C [Example 3-292, (3S,6R,9S,12R,15S,18R,21S,24R)-3,9,15,21-tetraisobutyl-4,6,10,16,18,22-hexamethyl-12,24-bis(4-((2-morpholinopyridin-4-yl)methyl)benzyl)-1,7,13,19-tetraoxa-4,10,16,22-tetraazacyclotetracosan-2,5,8,11,14,17,20,23-octaone] showed a minimal effective concentration [1] of 0.001 µM, a minimal effective concentration [2, 5] of 1 to 3.3 µM and a minimal effective concentration [2, 4] of 1.8 µM. For the same compound, the minimal effective concentration [3] was 0.0003 µM and the DiMf/DiL4 [3] was 3.3.
COc1ncc(F)cc1Cc1ccc(C[C@H]2OC(=O)[C@H](CC(C)C)N(C)C(=O)[C@@H](C)OC(=O)[C@H](CC(C)C)N(C)C(=O)[C@@H](Cc3ccc(Cc4cc(F)cnc4OC)cc3)OC(=O)[C@H](CC(C)C)N(C)C(=O)[C@@H](C)OC(=O)[C@H](CC(C)C)N(C)C2=O)cc1 [Example 3-293, (3S,6R,9S,12R,15S,18R,21S,24R)-6,18-bis(4-((5-fluoro-2-methoxypyridin-3-yl)methyl)benzyl)-3,9,15,21-tetraisobutyl-4,10,12,16,22,24-hexamethyl-1,7,13,19-tetraoxa-4,10,16,22-tetraazacyclotetracosan-2,5,8,11,14,17,20,23-octaone] gave a minimal effective concentration [1] of 0.05 µM, a minimal effective concentration [2, 4] of 5.7 µM and a minimal effective concentration [3] of 0.0003 µM. It also gave a DiMf/DiL4 [3] of 167.
In the case of Cc1ncncc1Cc1ccc(C[C@H]2OC(=O)[C@H](CC(C)C)N(C)C(=O)[C@@H](C)OC(=O)[C@H](CC(C)C)N(C)C(=O)[C@@H](Cc3ccc(Cc4cncnc4C)cc3)OC(=O)[C@H](CC(C)C)N(C)C(=O)[C@@H](C)OC(=O)[C@H](CC(C)C)N(C)C2=O)cc1 [Example 3-294, (3S,6R,9S,12R,15S,18R,21S,24R)-3,9,15,21-tetraisobutyl-4,6,10,16,18,22-hexamethyl-12,24-bis(4-((4-methylpyrimidin-5-yl)methyl)benzyl)-1,7,13,19-tetraoxa-4,10,16,22-tetraazacyclotetracosan-2,5,8,11,14,17,20,23-octaone], the minimal effective concentration [1] is reported as 0.0001 µM, the minimal effective concentration [2, 5] is reported as < 1 µM and the minimal effective concentration [2, 4] is reported as 1 µM. For the same compound, the minimal effective concentration [2, 6] was ≤ 1 µM, the minimal effective concentration [3] was 0.0001 µM and the DiMf/DiL4 [3] was 1.
Work on CC(C)C[C@H]1C(=O)O[C@H](Cc2ccc(Cc3cnccc3C(F)F)cc2)C(=O)N(C)[C@@H](CC(C)C)C(=O)O[C@H](C)C(=O)N(C)[C@@H](CC(C)C)C(=O)O[C@H](Cc2ccc(Cc3cnccc3C(F)F)cc2)C(=O)N(C)[C@@H](CC(C)C)C(=O)O[C@H](C)C(=O)N1C [Example 3-295, (3S,6R,9S,12R,15S,18R,21S,24R)-6,18-bis(4-((4-(difluoromethyl)pyridin-3-yl)methyl)benzyl)-3,9,15,21-tetraisobutyl-4,10,12,16,22,24-hexamethyl-1,7,13,19-tetraoxa-4,10,16,22-tetraazacyclotetracosan-2,5,8,11,14,17,20,23-octaone] yielded a minimal effective concentration [1] of 0.005 µM, a minimal effective concentration [2, 5] of 1 to 3.3 µM and a minimal effective concentration [2, 4] of 1.8 µM. For the same compound, the minimal effective concentration [3] was 0.0003 µM and the DiMf/DiL4 [3] was 16.7.
